The record followed here is ChEMBL document CHEMBL3297659, “Discovery, isolation, and structure elucidation of dretamycin” (J Nat Prod, 2014).

The source made the active and inactive calls. The calls are words filed in the database; no cut-off is given here.

Series [1] deals with Candida. Kind of series: Antifungal activity against Candida spp. Format: functional.
Series [2] is described as follows: Stability in aqueous solution at below pH 7.0. Format: physicochemical. Particulars: buffer.
Series [3] has as its system Saccharomyces cerevisiae. Kind of series: Antifungal activity against Saccharomyces cerevisiae. It counts as functional.
The test system of series [4] is Aspergillus fumigatus. Kind of series: Antifungal activity against Aspergillus fumigatus. It counts as functional.
The test system of series [5] is Candida albicans. Put plainly: Antifungal activity against wild-type Candida albicans assessed as hazy zone of inhibition by agar diffusion assay. Format: functional, organism-based.
In series [6] the test system is Candida albicans. Kind of series: Growth stimulation in Candida albicans expressing DIP5 heterozygous mutant. It counts as functional, organism-based.
The test system of series [7] is Candida albicans. Put plainly: Antifungal activity against Candida albicans expressing DRE-2 heterozygous mutant assessed as clear zone of inhibition by agar diffusion method. It counts as functional, organism-based.
The test system of series [8] is Candida albicans. Put plainly: Antifungal activity against Candida albicans expressing DRE-2 heterozygous mutant. It counts as functional, organism-based.

Molecule `NC(=O)C1=CN(O)C(C(=O)O)C1` (stereo not drawn) [listing 1 of 2 here] returned an MIC in series [1] of over 8 µg/mL. In addition, the Stability result in series [2] is “Unstable”.

For the molecule `NC(=O)C1=CN(O)C(C(=O)[O-])C1.[K+]` (stereo not drawn), the MIC in series [3] and in series [4] was over 32 µg/mL each time.

As for `NC(=O)C1=CN(O)C(C(=O)O)C1` (stereo not drawn) [listing 2 of 2 here], the “growth inhibition (GI)” value in series [5] and in series [7] was “Active” throughout. In addition, the outcome in series [6] and in series [8] was Active.
